Where two headings read alike, the source gives them in different places.
What was measured:
Tyrosinase [1] = details: for effect on tyrosinase reaction course (in words): absorbance time course 10-180 s compared with negative control completed at 60 s; for Inhibitory rate on tyrosinase, Average: average over 5, 0.1, 0.05 and 0.025 mmol/L; for highest inhibition rate on tyrosinase: highest rate among the tested concentrations
Procedure: The peptide solution (5 mmol/L) was then diluted 50-fold (0.1 mmol/L), 100-fold (0.05 mmol/L), and 200-fold (0.025 mmol/L), respectively, and then the inhibitory rate was calculated after a 5 min reaction.

[2] = system: UV-irradiated guinea pig skin; format: in vivo, guinea pig (Cavia porcellus); details: peptide solution 5 mmol/L painted on UV-irradiated back skin, sections after 24 h; for pathological tissue findings (Masson staining and HE staining): versus deionized water side
Procedure: Model preparation: Six adult healthy guinea pigs with normal development were selected. The fur on both sides of the back was shaved to expose a circular area with a diameter of 4 cm. Ultraviolet (UV) irradiation was performed at 10 cm from the skin in the exposed area, once daily with a dose of 700 mJ/cm^2, and continued for 7 consecutive days, with a cumulative dose of […]. A metal halide lamp was used as the light source with a power of 1000 W and a peak spectrum of 360 nm, including 70% long-wave ultraviolet (UVA) and 4% medium-wave ultraviolet (UVB). After UV-irradiation treatment, the peptide solution (5 mmol/L) was painted to the right, and an equal amount of deionized water was applied to the left. Tissue sections and staining observations were performed after 24 h.
Sectioning: Approximately 0.4 cm^3 of subcutaneous tissue from the drug administration area was excised, cleaned with physiological saline, and fixed. After dehydration (DIAPATH, Donatello, Milan, Italy) and hardening treatment, it was subsequently made transparent and subjected to a wax immersion treatment. After paraffin embedding (Wuhan Junjie Electronics Co., Ltd., JB-P5, Wuhan, China), the tissue was sectioned using a microtome (Shanghai Leica Instrument Co., Ltd., RM2016, Shanghai, China). The arranged sections were organized (Zhejiang Jinhua Kedi Instrument Equipment Co., Ltd., KD-P, Jinhua, China) for HE staining and Masson staining.
HE staining: The paraffin sections were placed in xylene I for 20 min, xylene II for 20 min, anhydrous ethanol I for 5 min, anhydrous ethanol II for 5 min, and 75% alcohol for 5 min for dewaxing treatment; after washing with water, they were placed into hematoxylin staining solution for 3–5 min, differentiated with differentiation solution after washing, and returned to blue with bluing solution after washing; after rinsing with running water, they were dehydrated with 85% and 95% alcohol solutions for 5 min each successively; after immersed into eosin staining solution for 5 min, they were placed in anhydrous ethanol I for 5 min, anhydrous ethanol II for 5 min, anhydrous ethanol III for 5 min, xylene I for 5 min, and xylene II for 5 min for transparency treatment. After, they were sealed with neutral gum, they were examined (Nikon Eclipse E100, Tokyo, Japan) and imaged (Nikon DS-U3, Tokyo, Japan) using a microscope.
Masson staining: The paraffin sections were placed in xylene I for 20 min, xylene II for 20 min, anhydrous ethanol I for 5 min, anhydrous ethanol II for 5 min, and 75% alcohol for 5 min for dewaxing treatment; after washing with water, they were immersed into Masson A solution overnight, washed with water, then immersed into a mixture of Masson B and Masson C for 1 min, washed with water, then differentiated using an alcohol solution containing 1% hydrochloric acid. Then, they were washed with water, then immersed into Masson D solution for 6 min, washed with water, then immersed into Masson E solution for 1 min, drained, and directly immersed into Masson F solution for 30 s. Subsequently, the sections were rinsed with 1% glacial acetic acid for differentiation, dehydrated with anhydrous ethanol three times for 5 min each, treated with xylene for transparency for 5 min, and then sealed with neutral gum. The sections were examined (Nikon Eclipse E100, Japan) and imaged (Nikon DS-U3, Japan) using a microscope.

Tyrosinase [3] = system: Tyrosinase; design: method as in PMID 23134995; details: cited from earlier work
Text: Neuropeptides with biological functions were called neuropeptides if they were secreted by neural tissues and involved in nervous system functions, which were characterized by low content, high activity, and extensive and complex functions (including food intake regulation, improved metabolism, neural regulation and reproduction, etc.). However, there have been few reports on the pigmentation regulation of neuropeptide. One important function of BommoOK, as a multifunctional neuropeptide, was pigmentation regulation. In silkworm q-l (quail like) mutants, BommoOK was a losing function, a ...

B. mori = details: CRISPR/cas9 tool and mature peptide subcutaneous injection; cited from earlier work
[4] = 0.025 mmol/L, after 5 min reaction
[5] = 0.05 mmol/L, after 5 min reaction
[6] = 0.1 mmol/L, after 5 min reaction

Compound	Inhibitory rate on tyrosinase (Tyrosinase [1]; [4])	Inhibitory rate on tyrosinase (Tyrosinase [1]; [5])	Inhibitory rate on tyrosinase (Tyrosinase [1]; [6])	Inhibitory rate on tyrosinase (Tyrosinase [1]; 5 mmol/L, after 5 min reaction)	effect on tyrosinase reaction course (in words) (Tyrosinase [1])	Inhibitory rate on tyrosinase, Average (Tyrosinase [1]; after 5 min reaction)	melanin inhibition (melanocytes, melanin granules) ([2]; Masson and HE staining)	pathological tissue findings (Masson staining and HE staining) [2]	whitening effect relative to β-arbutin (Tyrosinase [3])	pigmentation inhibition in B. mori (B. mori)	inhibition rate on tyrosinase, all concentrations (Tyrosinase [1]; all concentrations (5, 0.1, 0.05, 0.025 mmol/L), after 5 min reaction)	highest inhibition rate on tyrosinase (Tyrosinase [1])	duration of whitening effect (Tyrosinase [3])
NFDEIDRSSLNTFV [BommoOKA_type1, mature peptide of silkworm neuropeptide Orcokinin, […]]	5.16±0.14%	6.88±0.19%	2.87±0.02%	4.02±0.07%	seemed to tend to accelerate tyrosinase	4.73±1.48%	many stretched melanin granules emerged	loosely arranged tissues	–	–	–	–	–
Oc1ccc(OC2CCCCO2)cc1 (stereo not drawn) [deoxyarbutin]	–	–	–	–	–	–	–	–	more than 350 times	–	–	–	–
NFDEIDRSSMPFPYAI [BommoOKA_type2, mature peptide of silkworm neuropeptide Orcokinin, […]]	6.69±0.15%	6.12±0.09%	5.16±0.09%	–	–	7.02±1.88%	–	Many inflammatory cells	–	key for pigmentation inhibition	–	–	–
EARHSGYLPYQMF [BommoOKA_type4, mature peptide of silkworm neuropeptide Orcokinin, […]]	13.96±0.21%	17.02±0.11%	–	11.28±0.22%	a certain inhibitory effect on tyrosinase	15.49±3.17%	–	inflammatory factors were reduced, and epidermal hyperplasia improved	–	–	greater than 10%	19.69%	–
FYHLYGQNFLDIDSPVSSFD [BommoOKA_type3]	5.54±0.2%	–	6.50±0.17%	9.37±0.34%	a certain inhibitory effect on tyrosinase	8.27±2.42%	–	–	–	–	–	–	–
YDYISPYG [BommoOKA_type5, mature peptide of silkworm neuropeptide Orcokinin, YDYISPYG]	-2.68±1.07%	3.25±1.57%	-0.19±1.08%	5.93±0.94%	–	1.58±3.28%	–	inflammatory factors were reduced, and epidermal hyperplasia improved	–	–	–	–	–
NLDSLGGANF [BommoOKB_type1, mature peptide of silkworm neuropeptide Orcokinin, […]]	greater than 10%	–	8.6±1.39%	-4.02±0.82%	a certain inhibitory effect on tyrosinase	9.32±8.66%	–	significant epidermal hyperplasia	–	–	–	19.69%	–
OC[C@H]1O[C@@H](Oc2ccc(O)cc2)[C@H](O)[C@@H](O)[C@@H]1O [β-Arbutin, reference compound]	32.70±0.33%	53.61±1.27%	74.31±1.81%	72.50±0.12%	–	58.28±16.85%	–	–	–	–	–	more than 70%	more than 8 weeks
